# Experiments:
# WT and GPR85 KO mice = conditions: 2.5 g/kg i.p. ethanol, rectal temperature 30 minutes post injection, both WT and GPR85 KO mice
# Protocol: Initial sensitivity to alcohol is measured in mice after a single (acute) dose. […] Core body temperature was measured rectally (T0) (Physitemp) and then the mice were administered an i.p. dose of 2.5 mg/kg and placed in a Plexiglas dosing chamber. that is the same size as the animal's cage. Core body temperature was measured rectally 30 minutes post injection (T1) and returned to their home cage. Mice were housed in the testing room overnight.
# WT and GPR88 KO mice [1] = assay: Amphetamine-induced hyperactivity (locomotor activity in activity chambers); format: in vivo, mouse; conditions: amphetamine 2.5 mg/kg i.p., 30 minutes after injection, monitored 20 min, both WT and GPR88 KO mice, p<0.001
# Protocol: Open field activity was monitored in VersaMax chambers (Accuscan Instruments, Columbus, Ohio) measuring 40×40 cm. Locomotor activity was detected by photobeams breaks as the animal crossed each beam. The animal was placed in the center of the field and then left undisturbed for a period of time (20 min to 2 hr) in order to measure its spontaneous activity in a novel environment. Measurements used to assess locomotor activity included: horizontal activity, total distance traveled, vertical activity (rearing events—animal raises up on hindlimbs), rotation, stereotypy, and distance traveled in the center compared to total distance traveled (center: total distance ratio).
# Amphetamine-induced hyperactivity of GPR88 knockout mice was measured by injecting the animals with amphetamine and monitoring the animals' activity levels.
# GPR88 KO and WT mice [2] = assay: Amphetamine-induced hyperactivity, open field activity test; format: in vivo, mouse; conditions: amphetamine 2.5 mg/kg i.p., 30 min before test, monitored 20 min; both WT and GPR88 KO mice, p<0.001
# From the text: However, the activity level of KO mice (n=18) was much higher than that of the WT mice (n=18) (p<0.001 for the first 4-min block, p<0.05 for the second 4-min block, p<0.05 during the whole 20-min period). There was a strong genotype×treatment interaction for the first 4-min block (F(3,68)=10.5, p<0.01, two-way ANOVA).
# Another test assays open field activity. Locomotor activity is detected by photobeam breaks as the animal crosses each beam. Measurements used to assess locomotor activity include, for example, total distance traveled, total number of rearing events (animal raises up on hindlimbs), and distance traveled in the center compared to total distance traveled (center: total distance ratio). Typically, mice are placed in the center of the field. Mice will normally explore the edges/walls first and then, over time, spend more time in the center as they become familiar with the environment. Open field activity determination provides data on the general activity level of mice (i.e. hypo- or hyper-active), as well as an indication of the animal's anxiety-related behaviors in an open-space.
# GPR88 KO and WT mice [3] = assay: Amphetamine-induced reduction of prepulse inhibition (PPI) of acoustic startle; conditions: amphetamine 2.5 mg/kg i.p., tested 30 min later
# WT and GPR88 KO mice [4] = assay: Amphetamine-induced reduction of prepulse inhibition (PPI) of the acoustic startle response; conditions: amphetamine 2.5 mg/kg i.p., tested 30 minutes later, both WT and GPR88 KO mice (129sv)
# [5] = tested on: CHO cells stably transfected with a GPCR expression vector; assay: Intracellular calcium measurement using FLIPR; format: cell-based; conditions: positive controls; FLIPR fluorescence, signal measured for approximately 200 seconds
# Protocol: Changes in intracellular calcium levels are another recognized indicator of G protein-coupled receptor activity, and such assays can be employed to screen for modulators of GPCR activity. For example, CHO cells stably transfected with a GPCR expression vector are plated at a density of 40,000 cells/well in 96-well plates specially designed to discriminate fluorescence signals emanating from the various wells on the plate. The cells are incubated for 60 minutes at 37° C. in modified Dulbecco's PBS containing pyruvate and 1 g/L glucose with the addition of 1% fetal bovine serum and one of four calcium indicator dyes (Fluo-3™ AM, Fluo-4™ AM, Calcium Green™-1 AM, or Oregon Green™ BAPTA-1 AM). Plates are washed once with modified Dulbecco's PBS without 1% fetal bovine serum and incubated for 10 minutes at 37° C. to remove residual dye from the cellular membrane. […] Fluorescence is measured by Molecular Device's FLIPR with an argon laser (excitation […]) (Kuntzweiler et al., Drug Development Research, 44(1):14-20 (1998)).
# Basal fluorescence of cells was measured for 20 seconds prior to addition of candidate agonist, ATP, or A23187, and the basal fluorescence level was subtracted from the response signal. The calcium signal is measured for approximately 200 seconds, taking readings every two seconds. […]
smiles,measurement,setting,value
CCO [ethanol],effect on core body temperature (hypothermic effect),WT and GPR85 KO mice,reduced body temperature in both WT and KO mice
CC(N)Cc1ccccc1 (centres unmarked) [amphetamine],locomotor activity compared to baseline in the absence of drugs,WT and GPR88 KO mice [1],significantly higher activity
same,locomotor activity after amphetamine compared to baseline locomotor activity in the absence of drugs,GPR88 KO and WT mice [2],significantly higher activity
same,startle responses to the 120 dB stimulus after amphetamine treatment,GPR88 KO and WT mice [3]; both WT and GPR88 KO mice (129sv),significantly decreased
same,PPI after amphetamine treatment,"GPR88 KO and WT mice [3]; both WT and GPR88 KO mice, p<0.001",significant reduction of PPI
same,startle response to the 120 dB stimulus,WT and GPR88 KO mice [4],significantly decreased
Nc1ncnc2c1ncn2[C@@H]1O[C@H](COP(=O)(O)OP(=O)(O)OP(=O)(O)O)[C@@H](O)[C@H]1O [ATP],increase of calcium signal above baseline levels,[5],200%
CNc1ccc2oc(C[C@H]3O[C@@]4(CC[C@H]3C)O[C@H]([C@H](C)C(=O)c3ccc[nH]3)[C@H](C)C[C@H]4C)nc2c1C(=O)O [A23187],increase of calcium signal above baseline levels,[5],200%
